For series [1], the system named is Plasmodium falciparum. Nature of the series: Antiplasmodial activity against asexual blood-stage Plasmodium falciparum Tm90-C2B using 2% haematocrit and 0.2% parasitemia assessed as reduction in fluorescence measured after 72 hrs by Malaria SYBR Green I-based Fluorescence (MSF) assay. In kind it is functional, organism-based.
Series [2] deals with HepG2. Nature of the series: Cytotoxicity against human HepG2 cells assessed as cell viability measured after 48 hrs by MTT assay. Conditions: hepg2. In kind it is toxicity, cell-based.
Series [3] can be described thus: Metabolic stability in human liver microsomes assessed as half life measured up to 60 mins by LC/MS analysis. Type of series: ADME, Microsome.
Series [4] can be described thus: Metabolic stability in mouse liver microsomes assessed as half life measured up to 60 mins by LC/MS analysis. In kind it is ADME, Microsome.
A short description of series [5]: Solubility of the compound in potassium phosphate buffer at pH 7.4 by UV-vis spectroscopy. Conditions: buffer.
Series [6] deals with MDR1 (human). The experiment in a line: Apparent permeability across apical to basolateral side in MDCK transfected with human MDR1 cells incubated for 1 hr by LC-MS analysis. Conditions: dog, MDCK-MDR1.
The test system of series [7] is MDR1 (human). The experiment in a line: Apparent permeability across basolateral to apical side in MDCK transfected with human MDR1 cells incubated for 1 hr by LC-MS analysis. Conditions: dog, MDCK-MDR1.
Series [8] can be described thus: in vitro. The note with it: human, liver microsomes.
Series [9] in a line: in vitro. Conditions: mouse, liver microsomes.
In series [10] the test system is Plasmodium falciparum. The experiment in a line: microbe, parasite or virus in culture. Conditions: D6, 72 h.
Description: Antiplasmodial activity against asexual blood-stage Plasmodium falciparum D6 using 2% haematocrit and 0.2% parasitemia assessed as reduction in fluorescence measured after 72 hrs by Malaria SYBR Green I-based Fluorescence (MSF) assay
Series [11] deals with Plasmodium falciparum. Nature of the series: microbe, parasite or virus in culture. The note with it: Dd2, 72 h.
Description: Antiplasmodial activity against asexual blood-stage Plasmodium falciparum Dd2 using 2% haematocrit and 0.2% parasitemia assessed as reduction in fluorescence measured after 72 hrs by Malaria SYBR Green I-based Fluorescence (MSF) assay
Series [12] concerns Plasmodium yoelii. Nature of the series: Antimalarial activity against erythrocytic Plasmodium yoelii MRA-428 infected in CF1 mouse assessed as reduction in parasitemia at 10 mg/kg, po once daily for 4 days measured on day 5. Conditions: time 4 day. Set-up: scale not given: the % may be the effect or the level left. Type of series: functional.
In series [13] the test system is Plasmodium yoelii. Nature of the series: Antimalarial activity against erythrocytic Plasmodium yoelii MRA-428 infected in CF1 mouse assessed as reduction in parasitemia at 25 mg/kg, po once daily for 4 days measured on day 5. The note with it: time 4 day. Type of series: functional. Set-up: scale not given: the % may be the effect or the level left.

Converted amounts (≈) assume the structure as drawn.

Consider `CCC1=C(CC)/C(=C/NC2CCCCCCC2)N=C1c1ccc(Cl)[nH]1`, for which the concentration for half-maximal inhibition (IC50) in series [1] was 101 nM; in series [2], 12300 nM; in series [10], 186 nM; in series [11], 99.1 nM. The half-life in [3] and in [4] was over 60 min in each case. In series [5], the solubility stood at 5.37 µM (≈ 1.93 µg/mL). For the same compound, the Papp A→B at 1 h in series [6] stood at 0.28 ×10⁻⁶ cm/s. Besides, the basolateral-to-apical permeability (Papp B→A) at 1 h in series [7] is 0.04 ×10⁻⁶ cm/s. In addition, the microsomal CLint at 1 h was found to be 10.1 µL/min/mg in series [8] and 12.4 µL/min/mg in series [9].
For the compound `CCC1=C(CC)/C(=C/NC2CCCCCC2)N=C1c1ccc(-c2ccc(OC)cc2)[nH]1`, the IC50 in series [1] was found to be 16.6 nM; in series [2], 3400 nM; in [10], 19.4 nM; in [11], 25.4 nM. Besides, the half-life in series [3] came out at 8.44 min; in [4] it was 14.5 min. Further, in [12], the Activity is listed as 4.62%. The compound further gave a solubility in series [5] of 45.7 µM (≈ 19.1 µg/mL). In addition, in series [6], the Papp A→B at 1 h worked out at 0.045 ×10⁻⁶ cm/s. For the same compound, the Papp B→A at 1 h in series [7] turned out to be 0.013 ×10⁻⁶ cm/s. The figures for the microsomal CLint at 1 h in [8] and in series [9] were 164 µL/min/mg and 96.1 µL/min/mg, respectively.
`CCC1=C(CC)/C(=C/NC2CCCCCCC2)N=C1c1ccc(Cc2ccc(OC)cc2)[nH]1`: the IC50 in series [1] was determined as 13 nM; in series [2] it was 4310 nM; in series [11] it was 10.8 nM. The half-life in series [3] and in series [4] was over 60 min each time. The Activity in [12] was found to be 0%. Moreover, in series [5], the solubility was under 3.125 µM. Moreover, the Papp A→B at 1 h in series [6] came to 0.074 ×10⁻⁶ cm/s. Moreover, the Papp B→A at 1 h in [7] worked out at 0.12 ×10⁻⁶ cm/s.
For `CCc1ccc(C2=N/C(=C\NC3CCCCCC3)C(OC)=C2OC)[nH]1`, the half-inhibitory concentration (IC50) in [1] amounted to 1.41 nM; in [2], 11000 nM; in series [10], 3.69 nM; in series [11], 4.97 nM. Besides, the half-life is over 60 min in series [3] and 36.6 min in series [4]. In addition, the Activity was determined as 13.5% in series [12] and 59.6% in [13]. The compound also showed a solubility in series [5] of 56.1 µM (≈ 19.3 µg/mL). Also, the Papp A→B at 1 h in [6] was determined as 0.059 ×10⁻⁶ cm/s. For the same compound, the Papp B→A at 1 h in series [7] was determined as 0.16 ×10⁻⁶ cm/s. Besides, the microsomal CLint at 1 h in [8] was determined as 12.6 µL/min/mg; in series [9] it was 37.9 µL/min/mg.
Take `COC1=C(OC)/C(=C/NC2CCCCC2)N=C1c1ccc[nH]1`: the IC50 turned out to be 83.3 nM in series [1], 41600 nM in series [2], 66.8 nM in [10] and 73.5 nM in series [11]. In addition, the half-life in series [3] came to 14.6 min; in series [4], 18.7 min. Moreover, the results for the Activity in series [12] and in series [13] were 0% and 70.8%, respectively. Moreover, in series [5], the solubility came to 478 µM (≈ 144 µg/mL). For the same compound, the Papp A→B at 1 h in series [6] was determined as 4.3 ×10⁻⁶ cm/s. In [7], the Papp B→A at 1 h is 4.8 ×10⁻⁶ cm/s. For the same compound, the microsomal CLint at 1 h was determined as 94.9 µL/min/mg in series [8] and 74.1 µL/min/mg in series [9].
`CCC1=C(CC)/C(=C/NC2CCCCCCC2)N=C1c1ccc(-c2ccc(OC)cc2)[nH]1`: the IC50 in series [1] amounted to 25.4 nM; in [2], 4960 nM; in series [10] it was 14.5 nM; in [11] it was 22.5 nM. For the same compound, the half-life in series [3] and in series [4] was over 60 min each time. For the same compound, in series [12], the Activity was 0%. This compound also had a solubility in [5] of under 3.125 µM. Also, in series [6], the Papp A→B at 1 h is 0.054 ×10⁻⁶ cm/s. The Papp B→A at 1 h in series [7] is 0.012 ×10⁻⁶ cm/s.
For the compound `CCc1ccc(C2=N/C(=C\NC3CCCCCC3)C3=C2OCCO3)[nH]1`, the IC50 in series [1] was found to be 3.34 nM; in [2] it was 1780 nM; in [10], 7.58 nM; in series [11], 16.7 nM. For the same compound, the half-life in series [3] was over 60 min; in [4] it was 28.7 min. Also, the Activity amounted to 34.2% in series [12] and 67.4% in series [13]. In series [5], this compound gave a solubility of 52.1 µM (≈ 17.8 µg/mL). For the same compound, the Papp A→B at 1 h in [6] worked out at 0.042 ×10⁻⁶ cm/s. The Papp B→A at 1 h in series [7] worked out at 0.47 ×10⁻⁶ cm/s. The microsomal CLint at 1 h in series [8] came out at 20.6 µL/min/mg; in series [9] it was 48.2 µL/min/mg.
For the compound `CCC1=C(CC)/C(=C/NC2CCCCCCC2)N=C1c1ccc(-c2ccccc2)[nH]1`, the IC50 in series [1] worked out at 65.5 nM; in [2], 8960 nM; in [10], 39 nM; in series [11], 48.2 nM. For the same compound, the half-life in series [3] was 32.9 min; in series [4], 52.2 min. Besides, the Activity in series [12] came to 37.4%. In addition, the solubility in series [5] stood at 4.62 µM (≈ 1.86 µg/mL). Besides, the Papp A→B at 1 h in series [6] worked out at 0.004 ×10⁻⁶ cm/s. In series [7], the Papp B→A at 1 h was determined as 0.002 ×10⁻⁶ cm/s. Also, the values for the microsomal CLint at 1 h in series [8] and in series [9] were 42.1 µL/min/mg and 26.5 µL/min/mg, respectively.
